Consider 13 compounds from ChEMBL document CHEMBL1201862, “PubChem BioAssay data set” (2004).

Among the test systems are A498; HCC 2998; HCT-116; HCT-15; K562; NCI-H226; NCI-H460; SF-295; SF-539; SK-MEL-28; SK-MEL-5; UO-31; IGROV-1.
What all share (assay): NCI tumour cell line growth inhibition, 48 h

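A five-concentration, 48-hour dose response in 96-well plates underlies each endpoint, interpolated linearly between surrounding concentrations. Here, GI50 denotes the concentration required for 50% inhibition of growth.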 Active and inactive are the calls of the source. Cut-off read from the data, not from the text of the source: active = GI50 up to about 1.1 µM and inactive = higher.

As for `c1cc2c(cnc3cscc32)s1`, the GI50 in the assay with A498 is > 100 µM (inactive); with HCC 2998 it was > 100 µM (inactive); with HCT-116 it was > 100 µM (inactive); in the assay on HCT-15 it was > 100 µM; in the assay with K562 it was > 100 µM (inactive); with NCI-H226, > 100 µM (inactive). Besides, the GI50 with NCI-H460, with SF-295, in the assay with SF-539, with SK-MEL-28, in the assay on SK-MEL-5 and in the assay with UO-31 was > 100 µM (inactive) in each case.

Consider `COc1cc(C(C)c2cc3c(cc2OCCCCOc2cc4c(cc2C(C)c2cc(OC)c(OC)c(OC)c2)OCO4)OCO3)cc(OC)c1OC` (stereo not drawn), for which the GI50 in the assay with HCC 2998 is 29.5 µM (inactive); with HCT-116 it was 31.7 µM (inactive); in the assay on HCT-15, 34.8 µM; in the assay with IGROV-1, 49.9 µM (inactive); with K562, 28.2 µM (inactive); with NCI-H226 it was 31.5 µM (inactive). Also, the GI50 was 45.3 µM (inactive) in the assay with NCI-H460; 26.5 µM (inactive) in the assay on SF-295; 23.7 µM (inactive) in the assay with SF-539; 71 µM (inactive) in the assay with SK-MEL-28; 29.1 µM (inactive) in the assay on SK-MEL-5; 46.3 µM (inactive) with UO-31.

As to `C1=CC=C2NCCOCC/N=C3/C=CC=CC=C3NCCOCC/N=C\2C=C1`, the GI50 is > 100 µM (inactive) in the assay with A498; 67.1 µM (inactive) with HCC 2998; 28.4 µM (inactive) with HCT-116; 41.3 µM in the assay with HCT-15; > 100 µM (inactive) in the assay with IGROV-1; 31.4 µM (inactive) in the assay with K562. Also, the GI50 in the assay with NCI-H226 was > 100 µM (inactive); with NCI-H460, 30.4 µM (inactive); in the assay on SF-295, 52 µM (inactive); in the assay on SK-MEL-28 it was 86.5 µM (inactive); in the assay on SK-MEL-5, 48.6 µM (inactive); in the assay on UO-31, > 100 µM (inactive).

Consider `CC1=NN(C(=O)Cc2ccccc2)C(=O)/C1=C\C=C\c1ccccc1`, for which the GI50 in the assay on HCC 2998 is > 100 µM (inactive); with HCT-116 it was > 100 µM (inactive); with HCT-15 it was > 100 µM; in the assay on K562 it was > 100 µM (inactive); with NCI-H226, > 100 µM (inactive); with SF-295 it was > 100 µM (inactive). In addition, the GI50 in the assay with SF-539, with SK-MEL-28, in the assay with SK-MEL-5 and in the assay on UO-31 was > 100 µM (inactive) each time.

With `C/C(=N\N(C)C)C(CN1CCCCC1)C(c1ccccc1)c1c(O)c2ccccc2oc1=O` (stereo not drawn), the GI50 with A498 was > 100 µM (inactive); in the assay on HCT-116 it was > 100 µM (inactive); with HCT-15 it was > 100 µM; in the assay with IGROV-1, > 100 µM (inactive); in the assay on K562 it was > 100 µM (inactive); in the assay on NCI-H226, 37.5 µM (inactive). Also, the GI50 in the assay with NCI-H460 is > 100 µM (inactive); in the assay with SF-295, > 100 µM (inactive); with SF-539 it was > 100 µM (inactive); in the assay with SK-MEL-28 it was > 100 µM (inactive); with SK-MEL-5, > 100 µM (inactive); with UO-31, 32.6 µM (inactive).

Consider `S=c1nc2c(c[nH]1)C1c3ccccc3C2c2ccccc21`, for which the GI50 in the assay with HCT-116 was > 100 µM (inactive); in the assay with HCT-15, 80.2 µM; with IGROV-1, 69.2 µM (inactive); with K562, 45.6 µM (inactive); in the assay with NCI-H226, > 100 µM (inactive); with NCI-H460, > 100 µM (inactive). Further, the GI50 in the assay on SF-295 is 40.1 µM (inactive); with SF-539, > 100 µM (inactive); in the assay on SK-MEL-28, > 100 µM (inactive); in the assay with SK-MEL-5 it was 73.8 µM (inactive); in the assay on UO-31, 39.5 µM (inactive).

With `COc1ccc(S(=O)(=O)N/N=C/c2cc(I)cc([N+](=O)[O-])c2O)cc1OC`, the GI50 in the assay on A498 was 54.2 µM (inactive); in the assay on HCC 2998 it was 50.6 µM (inactive); in the assay with HCT-15 it was 36.6 µM; in the assay on IGROV-1, 37.7 µM (inactive); in the assay with K562, 35.2 µM (inactive); in the assay with NCI-H226 it was 22.7 µM (inactive). The GI50 was 55 µM (inactive) in the assay on NCI-H460, 29 µM (inactive) with SF-295, 19.8 µM (inactive) in the assay with SK-MEL-5 and 22 µM (inactive) in the assay with UO-31.

For `CC1CN(C(=O)CN2CCC(CCCCN(C)C)CC2)c2ccccc2NC1=O` (stereo not drawn), the GI50 in the assay on A498 was > 100 µM (inactive); with HCC 2998 it was > 100 µM (inactive); in the assay on HCT-116, > 100 µM (inactive); in the assay with HCT-15, > 100 µM; in the assay with IGROV-1, > 100 µM (inactive); with K562, > 100 µM (inactive). The GI50 in the assay with NCI-H226, in the assay with NCI-H460, in the assay with SF-295, with SK-MEL-28, with SK-MEL-5 and with UO-31 was > 100 µM (inactive) in each case.

As to `CC1(C)CCc2cc3c(cc2O1)OC(C)(C)C1c2c(ccc4c2CCC(C)(C)O4)OC31` (stereo not drawn), the GI50 in the assay on HCT-116 is > 100 µM (inactive); in the assay on HCT-15, > 100 µM; in the assay with IGROV-1 it was > 100 µM (inactive); with K562, > 100 µM (inactive); in the assay with NCI-H226 it was > 100 µM (inactive); in the assay on NCI-H460, > 100 µM (inactive). For the same compound, the GI50 in the assay on SF-295, in the assay on SF-539, in the assay with SK-MEL-5 and with UO-31 was > 100 µM (inactive) each time.

For `COC(=O)C1=C(c2ccc(OC)c(OC)c2)OC(c2cc(OC)c(OC)c(OC)c2)C1` (stereo not drawn), the GI50 in the assay on A498 is 25.6 µM (inactive); in the assay with HCC 2998, > 100 µM (inactive); in the assay with IGROV-1, 24.7 µM (inactive); in the assay on K562, > 100 µM (inactive); in the assay on NCI-H226 it was 50.8 µM (inactive); in the assay on NCI-H460 it was > 100 µM (inactive). Besides, the GI50 with SF-295 was 23 µM (inactive); in the assay on SF-539 it was 30.2 µM (inactive); in the assay with SK-MEL-28, > 100 µM (inactive); in the assay with SK-MEL-5 it was 29.3 µM (inactive); with UO-31, > 100 µM (inactive).

As for `O=C(O)CP(=S)(S)c1ccccc1` (stereo not drawn), the GI50 in the assay with A498, with K562, with NCI-H226, in the assay with NCI-H460, in the assay on SF-295 and in the assay with SF-539 was > 100 µM (inactive) throughout. Also, the GI50 in the assay on SK-MEL-28, in the assay on SK-MEL-5 and with UO-31 was > 100 µM (inactive) each time.

For `CCC1=NC(CO)[C@H](c2ccccc2)O1` (stereo partly drawn), the GI50 was > 100 µM (inactive) in the assay on A498; > 100 µM (inactive) in the assay on HCT-116; > 100 µM with HCT-15; > 100 µM (inactive) in the assay with IGROV-1; > 100 µM (inactive) in the assay on K562; > 100 µM (inactive) in the assay on NCI-H460. Also, the GI50 in the assay on SF-295, in the assay with SF-539, in the assay with SK-MEL-28 and in the assay on SK-MEL-5 was > 100 µM (inactive) each time.

In the case of `COc1ccc2c([nH]c3c(O)c(-c4c(C)cc5c([nH]c6c(CC=C(C)C)c(OC)ccc65)c4O)c(C)cc32)c1CC=C(C)C` [BISMURRAYAFOLINE B], the GI50 in the assay on A498 was > 100 µM (inactive); with HCC 2998, > 100 µM (inactive); in the assay with HCT-116, > 100 µM (inactive); in the assay on HCT-15, > 100 µM; in the assay on IGROV-1 it was > 100 µM (inactive); with K562, > 100 µM (inactive). Besides, the GI50 in the assay on NCI-H460, in the assay on SF-295, with SF-539, in the assay with SK-MEL-28, in the assay on SK-MEL-5 and in the assay with UO-31 was > 100 µM (inactive) in each case.
